Like-named read-outs stand apart in the source and are kept apart here.
How the values were obtained:
Assay in all cases: 5-day MTT cytotoxicity assay
[1] = system: human breast adenocarcinoma MCF-7; format: cell-based; details: MCF-7, 5-day MTT assay, read-out: IC50
Method: (§1) Cytotoxicity of compounds 1‒5 was initially determined against two cancer cell lines (mouse fibroblasts L-929 and human endocervical adenocarcinoma KB-3.1) by using a 5-day MTT assay according to an established procedure.
(§2) In 96-well flat-bottom microtiter plates, cell lines with serial dilution of the test compounds (final range: 37 to 0.6 × 10^−3 µg/mL) were incubated for five days. After five days, the cells were dyed using 3-(4,5-dimethyl-2-thiazolyl)-2,5-diphenyl-2H-tetrazolium bromide (MTT), which is only converted to its purple formazan derivative by living cells. The half-maximum inhibitory concentration (IC50 in µM) was calculated via the colorimetric method in a microplate reader using absorption at 595 nm. In addition, when an inhibition with an IC50 < 50 µM was observed, other cell lines were subjected to the test compounds to evaluate their further cytotoxicity: PC-3 (human prostate adenocarcinoma), SK-OV-3 (human ovary adenocarcinoma), MCF-7 (human breast adenocarcinoma), A-431 (human squamous carcinoma), and A549 (human lung carcinoma). A detailed procedure, including the colorimetric method to determine the cell viability, can be found in the SI.
(§3) Protocol: Cytotoxicity Assay
(§4) The assay was co nducted in 9 6-well flat -botto m microtiter plates using the parameters summarised in T able S2 and as described in [S2]. Cell l ines L-929 and KB-3.1 were incubated at 37 °C under 10 % CO2 in Gibco™ DMEM medium (T her mo Fisher Scientific, Waltham, M A, USA) supplemented with 10 % FBS. A microtiter plate was filled wit h 120 μ L o f this suspensio n (50,000/mL) in each well. Seperatel y, a nother microti ter plate wa s filled wit h 100 μL of gro wth medium in each well. Then, 50 μ L of the test compound solutions (1 mg/mL) were given to wells of the first column in two replicates (one compound per row). Cells without additives and MeOH were used as nega tive controls. Starting from the first column, 50 μ L of the solutions were gradually transferred to the next column, the contents thoroughly mixed, and 50 μL transferred to the following column. This created a serial dilution of the test compounds ranging from 333 μ g/mL to 1.9×10-3 μg/ mL. T he re mai ni ng 50 μ L after column twelve were discarded. From this microtiter plate, 60 μ L of the solutions fro m 111 μ g/mL to 1.9×10-3 μg/mL we r e give n to t he firs t p late co ntai ni ng 1 2 0 μ L of the cell suspensions (i.e. the highest co ncentration 333 μ g/ mL wa s no t used). T his resul ted in fi nal compo und concentratio ns rangi ng fro m 37 μ g/mL to 0.6×10-3 μg/ mL. After 5 days o f incubatio n under the aforementioned incubatio n conditions, the half maximu m inhibitory co ncentrations (IC50) were deter mined using a colorimetric tetrazolium d ye MT T assa y [S3]. For this, 20 μ L of a 5 mg/mL solution of 3-(4,5-dimethyl-2 -thiazolyl) -2,5-diphenyl-2H-tetrazolium br omide (MTT) were added to each well and incubated for two hours at 37 °C. T hen, the microtiter plate was ce ntrifuged (3,000 rpm, 5 min) and the supernatant removed by holding the plate upside-down and gentle shaking. Afterwards, the wells were washed using 100 μ L of phosphate buffered saline (PBS). T he plate was a gain ce ntrifuged a nd the supernata nt re mo ved as described before.
(§5) T hen, 1 0 0 μ L of an isopropanol:HCl solution (1L isopropanol+4 mL HCl 37 % w/v) were added to the wells. After incubating for 10 min at ambient temperature, the absorption of the wells at 595 nm was measured with an Infinite® 200 Pro microplate reader (TECAN, Männedorf, Schweiz). The absorption values of the cells without additives were averaged and set to 100 % cell viability. Then, the means of absorption of the two compound replicates were set in relation to the blank media. T hese percentage values were plotted against the concentratio n range (37 μ g/mL to 0.6×10−3 μg/ mL). T he IC50 value was r ead fro m the plot (in μ g/ mL) a nd the uni ts conversed […]
to μM. […]

[2] = system: human lung carcinoma A-549; format: cell-based; details: A549, 120 h, A-549, 5-day MTT assay, read-out: IC50
Method: as §1, §2, §3, §4, §5
to μM. […]

[3] = system: human prostate cancer PC-3; format: cell-based; details: 120 h, PC-3, 5-day MTT assay, read-out: IC50
Method: as §1, §2, §3, §4, §5
to μM. […]

[4] = system: ovarian carcinoma SK-OV-3; format: cell-based, human; details: SK-OV-3, 5-day MTT assay, read-out: IC50
Method: as §1, §2, §3, §4, §5
to μM. […]

[5] = system: squamous cell carcinoma A-431; format: cell-based, human; details: A-431, 5-day MTT assay, read-out: IC50
Method: as §1, §2, §3, §4, §5
to μM. […]

`CCC(C(=O)O)C1C(C)=CC2CC(C)CCC2C1(C)C(O)=C1C(=O)C(C)N(C)C1=O` (centres unmarked) [compound 2, Colposetin B] gave an IC50 ([1]; Homo sapiens, MCF7, 120 h) of 6.2 to 8.1 µM, an IC50 [1] of 7.9 µM and an IC50 [2] of 16.5 µM. It also gave an IC50 [3] of 17.9 µM, an IC50 ([4]; Homo sapiens, SK-OV-3, 120 h) of 6.2 to 8.1 µM and an IC50 [4] of 8.1 µM. For the same compound, the IC50 [5] was 6.2 µM and the IC50 ([5]; Homo sapiens, A-431, 120 h) was 6.2 to 8.1 µM.

From paper PMC8224775, “Five Tetramic Acid Derivatives Isolated from the Iranian Fungus Colpoma quercinum CCTU A372” (Biomolecules, 2021)
